Assay [1] has as its system TGFbeta cellular signaling pathway. As to the kind of experiment: THP-1 cells cultured 24 hrs with LPS, then DHT or AR inhibitor (FIG. 35, Table 7); pathway analysis. The class given is cell-based. The protocol:
(§1) FIG. 35 Schematic overview of AR inhibitor experiment. Depicts the experimental setup to determine if AR inhibitors can be used to mitigate the effect of LPS on monocytes (THP-1 cells). […] In a parallel experiment, THP-1 cells are first cultured for 24 hours with LPS, after which the medium is changed and the cells are cultured with one of ARCC-4, ARD-266, A-458 and bicalutamide.
(§2) FIG. 35 describes the experimental set-up used. […] In a parallel experiment, THP-1 cells are first cultured for 24 hours with LPS, after which the medium is changed and the cells are cultured with one of ARCC-4, ARD-266, A-458 and bicalutamide.
As expected the remaining AR inhibitors were not able to mitigate the effect of LPS on TGFbeta cellular signaling pathway activity.
AR and TGFbeta pathways are functional in monocytic cells (Table 7).

Assay [2] concerns TGFbeta pathway. As to the kind of experiment: PBMCs of sepsis patients treated in vitro 24 hours with inhibitors, pathway activity score. Details: scale not given here. To be noted: EXP 2, individual patient samples, Resatorvid 10 uM, D4-abiraterone 10 uM, A-485 100 nM, Galunisertib 10 uM. The class given is cell-based, human. The protocol:
(§3) PBMC samples from healthy volunteers and sepsis patients were obtained via Tissue solutions. Briefly, cryopreserved PBMCs were first washed with washing buffer (PBS/1% BSA/2 mM EDTA), centrifuged and pellet resuspended in culture medium (RPM11640 without phenol red+8.5% charcoal stripped FBS+1% Glx+1% p/s). 0.5·10^5-1·10^6 cells were seeded per well in 24 wells plate and rested for 1 hour before treatment experiment. 10 PBMC samples from healthy donors were used to; (1) measure the baseline pathway levels, (2) activate with LPS
(§4) Sepsis treatment model: PBMC derived from sepsis patients (n=20) were treated 24 hours with compounds, DMSO or combination of compounds. (PBMC from healthy and sepsis patients are originating from the same hospital to minimize bias in sample prep). After stimulation cells were harvested and RNA was extracted using the RNeasy mini kit (Qiagen, 74104). qPCR was performed using the Philips Research OncoSignal platform.
(§5) In total 18 PBMCs sepsis samples were treated for 24 hours with selected inhibitors (and combinations), 6 patient samples per experiment.

Assay [3] deals with AR cellular signaling pathway. As to the kind of experiment: THP-1 cells cultured 24 hrs with LPS, then DHT or AR inhibitor (FIG. 35, Table 7); pathway analysis. The class given is cell-based. Here is the method: as §1, §2
All experimental conditions were subjected to cellular signaling pathways analysis.

Assay [4] relates to AR pathway. As to the kind of experiment: PBMCs of sepsis patients treated in vitro 24 hours with inhibitors, pathway activity score. It counts as cell-based, human. More on the design: AR Pathway activity scores of sepsis PBMC patients: scale not given here. To be noted: EXP 2, individual patient samples, Resatorvid 10 uM, D4-abiraterone 10 uM, A-485 100 nM, Galunisertib 10 uM. The protocol:
as §3, §4, §5

For assay [5], the system named is TGFbeta cellular signaling pathway. As to the kind of experiment: THP-1 sepsis prevention model, qPCR-based STP activity score. It counts as cell-based.
The test system of assay [6] is AR pathway. As to the kind of experiment: MOLT-4 lymphoid cell line stimulated with LPS or DHT and inhibited with Bicalutamide or Enzalutamide (Table 9B). To be noted: stimulated 5 hours and subsequently inhibited. The class given is cell-based. The protocol:
(§6) MOLT-4 (ATCC CRL-1582) were cultured in RPMI1640 media, supplemented with 10% FBS, 1% glutamax and 1% pen strep at 37° C. 5% CO2.
(§7) After stimulation cells were harvested and RNA was extracted using the RNeasy mini kit (Qiagen, 74104). qPCR-based STP activity scores were calculated using the Philips Research OncoSignal platform (www.philips.com/oncosignal), as described herein.

Assay [7] relates to TGFBeta pathway. The assay is described as above. The class given is cell-based. Here is the method:
as §6, §7

Assay [8] relates to AR pathway. As to the kind of experiment: THP-1 cell line stimulated with LPS or DHT and inhibited with Bicalutamide or Enzalutamide (Table 9A). The class given is cell-based. Here is the method: (§8) LPS is considered the main mediator of the sepsis symptoms. An in vitro experiment was designed where monocytes were stimulated with LPS and subsequently treated with a variety of inhibitors. […] 26 Aug.
as §7

Assay [9] relates to TGFBeta pathway. Described as above. The class given is cell-based. Here is the method: as §8, §7
Assay [10] relates to AR cellular signaling pathway. The assay is described as follows: THP-1 sepsis prevention model, qPCR-based STP activity score. It counts as cell-based.
For assay [11], the system named is ER cellular signaling pathway. It counts as cell-based. Here is the method: as §1, §2
For assay [12], the system named is HH (Hedgehog) cellular signaling pathway. It counts as cell-based. Here is the method: as §1, §2
Setting [13] is: THP-1, 24 hours LPS, medium changed, then inhibitor.
The mark [14] stands for this setting: 24 hrs 25 uM Bicalutamide or DMSO, then 24 hrs DHT.
The mark [15] stands for this setting: 24 hrs 25 uM Bicalutamide or DMSO, then 24 hrs LPS.
Setting [16] is: 24 hrs 25 uM Bicalutamide, then 24 hrs PBS.
The mark [17] stands for this setting: DHT (25 nM) alone or + Bicalutamide (5 uM) or Enzalutamide (5 uM).
Where [18] appears, read: LPS (50 ng/mL) alone or + Bicalutamide (5 uM) or Enzalutamide (5 uM).
The mark [19] stands for this setting: MOLT-4, DHT (25 nM) alone or + Bicalutamide (5 uM) or Enzalutamide (5 uM), stimulated 5 hours and subsequently inhibited.
The mark [20] stands for this setting: MOLT-4, LPS (50 ng/mL) alone or + Bicalutamide (5 uM) or Enzalutamide (5 uM), stimulated 5 hours and subsequently inhibited.
Where [21] appears, read: THP-1, DHT (25 nM) alone or + Bicalutamide (5 uM) or Enzalutamide (5 uM), stimulated 5 hours and subsequently inhibited.
Setting [22] is: THP-1, LPS (50 ng/mL) alone or + Bicalutamide (5 uM) or Enzalutamide (5 uM), stimulated 5 hours and subsequently inhibited.

“And” between values parts separate entries of the source, which are not always exact repeats. Equal values may be shown once.

With `CNC(=O)Nc1ccc2c(c1)CC[C@@]21OC(=O)N(CC(=O)N(Cc2ccc(F)cc2)[C@@H](C)C(F)(F)F)C1=O` [A-485], in [1] (setting [13]), the “LPS induced TGFbeta activity after addition of inhibitor (FIG. 39)” value is “reduction of LPS induced TGFbeta activity”. The “TGFbeta Pathway activity scores of sepsis PBMC patients” value in [2] was 28 and 33 and 35. Also, the “LPS induced AR activity after addition of inhibitor (FIG. 36)” value in assay [3] (setting [13]) was “reduction of AR activity”. Besides, the “AR Pathway activity scores of sepsis PBMC patients” value in assay [4] was 24 and 27 and 25.
On to `CC(O)(CS(=O)(=O)c1ccc(F)cc1)C(=O)Nc1ccc(C#N)c(C(F)(F)F)c1` (centres unmarked) [Bicalutamide], for which the entries for the “Average TGFbeta STP score” value in assay [5] (setting [14]), in assay [5] (setting [15]) and in assay [5] (setting [16]) were 1.04 normalized scores, 9.78 normalized scores and 1.25 normalized scores, respectively. The “AR STP activity” value in assay [6] (setting [17]) stood at 7.4 normalized scores; in assay [6] (setting [18]), 7.2 normalized scores; in assay [8] (setting [21]), 6.7 normalized scores; in [8] (setting [22]) it was 20.2 normalized scores. The “TGFbeta STP activity” value was 13.9 normalized scores in assay [7] (setting [19]), 14.1 normalized scores in assay [7] (setting [20]), 15.6 normalized scores in assay [9] (setting [21]) and 34.6 normalized scores in assay [9] (setting [22]). Besides, the “Average AR STP score” value in assay [10] (setting [14]) is 3.17 normalized scores; in assay [10] (setting [15]) it was 12.93 normalized scores; in [10] (setting [16]) it was 2.63 normalized scores.
For `C[C@]12CCC(=O)C[C@@H]1CC[C@@H]1[C@@H]2CC[C@]2(C)[C@@H](O)CC[C@@H]12` [DHT, dihydrotestosterone], in assay [5] (setting [14]), the “Average TGFbeta STP score” value is 1.27 normalized scores. For the same molecule, in assay [1], the “TGFbeta signaling activity, effect of stimulus (FIG. 39)” value is listed as “did not increase”. Besides, the “AR STP activity” value amounted to 7.5 normalized scores in [6] (setting [17]) and 8.7 normalized scores in assay [8]. The “TGFbeta STP activity” value was 14.1 normalized scores in assay [7] and 12.9 normalized scores in assay [9]. For the same molecule, the “ER cellular signaling pathway activity (FIG. 37)” value in assay [11] is given as “not substantially affected”. The “HH cellular signaling pathway activity (FIG. 38)” value in assay [12] is listed as “not substantially affected”. For the same molecule, the “AR cellular signaling pathway activity, effect of stimulus (FIG. 36)” value in [3] is reported as “increase”. The “Average AR STP score” value in assay [10] (setting [14]) amounted to 6.13 normalized scores.
For `CNC(=O)c1ccc(N2C(=S)N(c3ccc(C#N)c(C(F)(F)F)c3)C(=O)C2(C)C)cc1F` [Enzalutamide], the “AR STP activity” value in assay [6] (setting [17]) is recorded as 7.3 normalized scores; in [6] (setting [18]), 6.3 normalized scores; in [8] (setting [21]) it was 6.0 normalized scores; in [8] (setting [22]), 20.4 normalized scores. Besides, the “TGFbeta STP activity” value in assay [7] (setting [19]) is 14.1 normalized scores; in assay [7] (setting [20]), 14.1 normalized scores; in assay [9] (setting [21]), 17.3 normalized scores; in assay [9] (setting [22]), 33.6 normalized scores.
As for `C[C@]12CC[C@H]3[C@@H](CCC4=CC(=O)CC[C@@]43C)[C@@H]1CC[C@@H]2O` [Testosterone], in [3] (THP-1 cells), the “AR pathway activity, ligand stimulation” value is “induced activity”.
Turning to “TGFbeta: original ligand for the TGFbeta STP added to monocytic cells”, in assay [1] (monocytic cells (THP-1)), the “TGFbeta pathway activity, ligand stimulation” value is “induced activity”.
